Settings: 24° C.

SMILES: C1CCOC1.C1CCOC1.C1CCOC1.C1CCOC1.CC(C)(C)c1cc2c(c(C(C)(C)C)c1)O[B-]1(Oc3c-2cc(C(C)(C)C)cc3C(C)(C)C)Oc2c(cc(C(C)(C)C)cc2C(C)(C)C)-c2cc(C(C)(C)C)cc(C(C)(C)C)c2O1.[Li+] [lithium tetrakis(tetrahydrofuran)bis(3,3′,5,5′-tetra-tert-butyl-2,2′-diphenolato)borate(III)]
- solubility in pentane (maximum concentrations): at least 21 g/L
